Like-named read-outs stand apart in the source and are kept apart here.
Tests used:
[1] = test system: RAVV (Ravn variant); format: cell-based, Ravn virus
[2] = test system: recombinant EBOV (Mayinga variant); format: cell-based, Ebola virus; settings: read-out: Approximate EC50 against recombinant reporter EBOV variants
[3] = test system: NiV (Malaysian genotype); settings: cited from earlier work
[4] = test system: HeV; settings: cited from earlier work

For “2′-monofluoro-4′-azidocytidine [2′F-4′N3-C]”, the “Reduction of infectious RAVV titers” value [1] was “roughly 1.5 orders of magnitude” and the EC50 [2] was 3000 to 8000 nM.
In the case of `[N-]=[N+]=N[C@]1(CO)O[C@@H](n2ccc(N)nc2=O)[C@H](O)[C@@H]1O` [R1479, 4′-azidocytidine], the EC50 [3] is given as 1500 nM, the EC50 [4] is given as 2400 nM and the “Reduction of infectious RAVV titers” value ([1]; at 50 μM) is given as “over 4 orders of magnitude”. The EC50 [2] was ~2000 nM.

From PMC6066796 (Antiviral Research, 2018)
